Source: US7488748B2, “3,6-Disubstituted azabicyclo hexane derivatives as muscarinic receptor antagonists” (Ranbaxy Laboratories Limited, priority 2003, dated 2009)

Assays:
[1] = molecular target: T1, M2 muscarinic receptor (Rattus norvegicus, UniProt P10980); test: Radioligand binding assay, [3H]-N-methylscopolamine, rat heart membranes; settings: [3H]NMS, Ki by Cheng & Prusoff; for Ki: read-out: Receptor Binding Assay pKi M2 (converted)
T1 construct: from tissue; host or cells: rat heart membrane homogenate
T1 sequence (P10980 1-466): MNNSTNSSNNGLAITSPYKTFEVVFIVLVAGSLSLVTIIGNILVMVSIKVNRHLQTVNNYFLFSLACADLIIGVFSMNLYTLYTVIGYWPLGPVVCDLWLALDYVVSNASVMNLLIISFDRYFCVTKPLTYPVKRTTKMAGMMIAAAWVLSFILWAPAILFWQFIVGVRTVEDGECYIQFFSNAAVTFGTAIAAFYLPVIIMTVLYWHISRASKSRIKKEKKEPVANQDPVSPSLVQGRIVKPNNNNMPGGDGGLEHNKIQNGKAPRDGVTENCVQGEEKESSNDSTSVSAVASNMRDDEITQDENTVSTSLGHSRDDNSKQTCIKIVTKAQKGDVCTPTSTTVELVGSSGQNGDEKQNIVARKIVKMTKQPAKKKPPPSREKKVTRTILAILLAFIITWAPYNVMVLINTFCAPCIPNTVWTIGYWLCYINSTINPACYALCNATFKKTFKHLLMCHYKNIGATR
Procedure: (§1) The affinity of test compounds for M2 and M3 muscarinic receptor subtypes was determined by [^3H]—N-methylscopolamine binding studies using rat heart and submandibular gland respectively as described by Moriya et al., (Life Sci., 1999,64(25):2351-2358) with minor modifications.
(§2) Membrane preparation: Submandibular glands and heart were isolated and placed in ice cold homogenizing buffer (HEPES 20 mM, 10 mM EDTA, pH 7.4) immediately after sacrifice. The tissues were homogenized in 10 volumes of homogenizing buffer and the homogenate was filtered through two layers of wet gauze and filtrate was centrifuged at 500 g for 10 min. The supernatant was subsequently centrifuged at 40,000 g for 20 min. The pellet thus obtained was resuspended in same volume of assay buffer (HEPES 20 mM, EDTA 5 mM, pH 7.4) and were stored at −70° C. until the time of assay.
(§3) Ligand binding assay The compounds were dissolved and diluted in DMSO. The membrane homogenates (150-250 μg protein) were incubated in 250 μl of assay buffer (HEPES 20 mM, pH 7.4) at 24-25° C. for 3 h. Non-specific binding was determined in the-presence of 1 μM atropine. The incubation was terminated by vacuum filtration over GF/B fiber filters(Wallac). The filters were then washed with ice cold 50 mM Tris HCl buffer (pH 7.4). The filter mats were dried and bound radioactivity retained on filters was counted. The IC50 & Kd were estimated by using the non-linear curve fitting program using G Pad Prism software. The value of inhibition constant Ki was calculated from competitive binding studies by using Cheng & Prusoff equation (Biochem Pharmacol, 1973,22: 3099-3108), Ki=IC50/(1+L/Kd), where L is the concentration of [^3H]NMS used in the particular experiment.

[2] = molecular target: T2, M3 muscarinic receptor (Rattus norvegicus, UniProt P08483); test: Radioligand binding assay, [3H]-N-methylscopolamine, rat submandibular gland membranes; settings: [3H]NMS, Ki by Cheng & Prusoff; for Ki: read-out: Receptor Binding Assay pKi M3 (converted)
T2 construct: from tissue; host or cells: rat submandibular gland membrane homogenate
T2 sequence (P08483 whole entry): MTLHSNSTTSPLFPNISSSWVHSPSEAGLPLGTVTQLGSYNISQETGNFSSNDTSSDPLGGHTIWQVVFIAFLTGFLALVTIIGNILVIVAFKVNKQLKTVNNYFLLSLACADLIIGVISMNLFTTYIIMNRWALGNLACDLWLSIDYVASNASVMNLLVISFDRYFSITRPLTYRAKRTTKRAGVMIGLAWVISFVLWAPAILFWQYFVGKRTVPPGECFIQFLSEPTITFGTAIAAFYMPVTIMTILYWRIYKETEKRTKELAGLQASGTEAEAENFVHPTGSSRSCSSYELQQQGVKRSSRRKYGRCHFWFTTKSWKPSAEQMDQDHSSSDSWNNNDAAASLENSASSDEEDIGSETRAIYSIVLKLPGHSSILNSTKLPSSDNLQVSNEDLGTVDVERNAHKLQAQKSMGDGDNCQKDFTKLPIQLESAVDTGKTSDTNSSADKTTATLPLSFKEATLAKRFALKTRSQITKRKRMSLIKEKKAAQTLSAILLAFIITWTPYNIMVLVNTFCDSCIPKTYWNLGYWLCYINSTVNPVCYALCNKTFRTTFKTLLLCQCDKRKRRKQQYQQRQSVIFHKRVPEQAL
Procedure: as §1, §2, §3

[3] = system: isolated rat bladder; test: Functional experiments using isolated rat bladder (carbachol-induced contraction); settings: isolated rat bladder strips, carbachol concentration response curve, antagonist added 20 min prior
Procedure: Functional Experiments Using Isolated Rat Bladder:
Animals were euthanized by overdose of urethane and whole bladder was isolated and removed rapidly and placed in ice cold Tyrode buffer with the following composition (mMol/L) NaCl 137; KCl 2.7; CaCl2 1.8; MgCl2 0.1; NaHCO3 11.9; NaH2PO4 0.4; Glucose 5:55 and continuously gassed with 95% O2 and 5% CO2.
The bladder was cut into longitudinal strips (3 mm wide and 5-6 mm long) and mounted in 10 ml organ baths at 30° C., with one end connected to the base of the tissue holder and the other end connected to a polygraph through a force displacement transducer. Each tissue was maintained at a constant basal tension of 2 g and allowed to equilibrate for 1 hour during which the PSS was changed every 15 min. At the end of equilibration period the stabilization of the tissue contractile response was assessed with 1 μmol/L of Carbachol consecutively for 2-3 times. Subsequently a cumulative concentration response curve to carbachol (10-9 mol/L to 3×10^−5 mol/L) was obtained. After several washes, once the baseline was achieved, cumulative concentration response curve was obtained in presence of NCE (NCE added 20 min. prior to the second CRC).
The contractile results were expressed as % of control E max. ED50 values were calculated by fitting a non-linear regression curve (Graph Pad Prism). PKB values were calculated by the formula pKB=−log [(molar concentration of antagonist/(dose ratio−1))]
dose ratio=ED50 in the presence of antagonist/ED50 in the absence of antagonist.

SMILES | Ki [1] [nM] | Ki [2] [nM] | Functional Assay pKB [3] | Receptor Binding Assay pKi M2 [1] | Receptor Binding Assay pKi M3 [2]
O=C(NC1C2CN(Cc3cccs3)CC21)C(O)(c1ccccc1)C1CCCCC1 (stereo not drawn) [Compound No. 2, (1α, 5α, 6α)-N-[3-(2-Thienylmethyl)-3-azabicyclo[3.1.0]hex-6-yl]-2-hydroxy-2-cyclohexyl-2-phenylacetamide] | 3160 | 129 | 7.52 | – | –
O=C(NC1C2CN(Cc3cccs3)CC21)C(O)(c1ccccc1)C1CCCC1 (stereo not drawn) [Compound No. 3, (1α, 5α, 6α)-N-[3-(2-thienylmethyl)-3-azabicyclo[3.1.0]hex-6-yl]-2-hydroxy-2-cyclopentyl-2-phenylacetamide] | 3980 | 525 | 8.04 | – | –
O=C(NC1C2CN(CCc3ccc(Cl)cc3)CC21)C(O)(c1ccccc1)C1CCCC1 (stereo not drawn) [Compound No. 17, (1α, 5α, 6α)-N-[3-(4-chlorophenethyl)-3-azabicyclo[3.1.0]hex-6-yl]-2-hydroxy-2-cyclopentyl-2-phenylacetamide] | 501 | 79.4 | 7.02 | – | –
O=C(NC1C2CN(CCCc3ccccc3)CC21)C(O)(c1ccccc1)C1CCCC1 (stereo not drawn) [Compound No. 19, (1α, 5α, 6α)-N-[3-(3-phenylpropyl)-3-azabicyclo[3.1.0]hex-6-yl]-2-hydroxy-2-cyclopentyl-2-phenylacetamide] | 2630 | 776 | 7.52 | – | –
CC(c1ccccc1)N1CC2C(C1)C2NC(=O)C(O)(c1ccccc1)C1CCCC1 (stereo not drawn) [Compound No. 21, (1α, 5α, 6α)-N-[3-(1-phenylethyl)-3-azabicyclo[3.1.0]hex-6-yl]-2-hydroxy-2-cyclopentyl-2-phenylacetamide] | 631 | 25.1 | 8.2 | – | –
Cc1ccc(C(C)N2CC3C(C2)C3NC(=O)C(O)(c2ccccc2)C2CCCC2)cc1 (stereo not drawn) [Compound No. 43, (1α, 5α, 6α)-N-[3-[1-(4-methylphenyl)ethyl]-3-azabicyclo[3.1.0]hex-6-yl]-2-hydroxy-2-cyclopentyl-2-phenylacetamide] | 1230 | 58.9 | 6.86 | – | –
Cc1ccc(CCN2CC3C(C2)C3NC(=O)C(O)(c2ccccc2)C2CCCC2)cc1C (stereo not drawn) [Compound No. 50] | 813 | 43.7 | 7.48 | – | –
CC(c1ccccc1)N1CC2C(C1)C2NC(=O)C(O)(c1ccccc1)C1CCCCC1 (stereo not drawn) [Compound No. 58, (1α, 5α, 6α)-N-[3-[1-(phenyl)ethyl]-3-azabicyclo [3.1.0]hex-6-yl]-2-hydroxy-2-cyclohexyl-2-phenylacetamide] | 155 | 5.89 | 7.89 | – | –
COC(=O)c1ccc(CCN2CC3C(C2)C3NC(=O)C(O)(c2ccccc2)C2CCCC2)cc1 (stereo not drawn) [Compound No. 66, (1α, 5α, 6α)-N-[3-(2-(4-methoxycarbonyl)phenyl)ethyl-3-azabicyclo[3.1.0]hex-6-yl]-2-hydroxy-2-cyclopentyl-2-phenylacetamide] | 537 | 43.7 | 7.67 | – | –
O=C(N[C@H]1[C@@H]2CN(CCc3ccc(CO)cc3)C[C@@H]21)C(O)(c1ccccc1)C1CCCC1 (stereo partly drawn) [Compound No. 71, (1α, 5α, 6α)-N-[3-(4-hydroxymethylphenethyl)-3-azabicyclo [3.1.0]-hex-6-yl]-2-hydroxy-2-cyclopentyl-2-phenylacetamide] | – | – | 6.8 | 6.01 | 7.37 -log M (pKi, unitless)
CC(c1ccccc1)N1C[C@@H]2[C@H](C1)[C@H]2NC(=O)C(O)(c1ccccc1)C1CCCCCC1 (stereo partly drawn) [Compound No. 81, (1α, 5α, 6α)-N-[3-(1-phenylethyl)-3-azabicyclo[3.1.0]-hex-6-yl]-2-hydroxy-2-cycloheptyl-2-phenylacetamide] | – | – | 7.89 | 7.27 | 8.62 -log M (pKi, unitless)
O=C(NC1C2CN(Cc3ccccc3)CC21)C(Cl)(c1ccccc1)C1CCCCC1 (stereo not drawn) [Compound No. 115, (1α, 5α, 6α)-N-[3-benzyl-3-azabicyclo[3.1.0]-hex-6-yl]-2-chloro-2-cyclohexyl-2-phenylacetamide] | > 1000 | > 1000 | 5.45 | – | –
O=C(NC1C2CN(Cc3ccccc3)CC21)C(c1ccccc1)C1CCCCC1 (stereo not drawn) [Compound No. 116, (1α, 5α, 6α)-N-[3-benzyl-3-azabicyclo[3.1.0]-hex-6-yl]-2-cyclohexyl-1-2-phenylacetamide] | > 1000 | > 1000 | 6.03 | – | –
O=C(NC1C2CN(Cc3ccccc3)CC21)C(O)c1ccccc1 (stereo not drawn) [Compound No. 117, (1α, 5α, 6α)-N-[3-benzyl-3-azabicyclo[3.1.0]-hex-6-yl]-2-hydroxy-2-phenylacetamide] | > 1000 | > 1000 | 5.08 | – | –
CC(C)=CCCN1CC2C(C1)C2N(C)C(=O)C(O)(c1ccccc1)C1CCCC1 (stereo not drawn) [Compound No. 125, N-methyl-N-(1α, 5α, 6α)-N-[3-(4-methyl-3-pentenyl)-3-azabicyclo[3.1.0]-hex-6-yl]-2-cyclopentyl-2-hydroxy-2-phenylacetamide] | 24.5 | 26.3 | 8.36 | – | –
